The values that follow come from US20220259164A1, “USE OF AMINOTHIOL COMPOUNDS AS CEREBRAL NERVE OR HEART PROTECTIVE AGENT” (SHANGHAI KECHOW PHARMA, INC., priority 2019, published 2022).

The subject of assay [1] is cisplatin-induced nephrotoxicity in SD rats. Description: Cisplatin-induced nephrotoxicity in SD rats: blood creatinine and urea nitrogen. The class given is in vivo, rat. The note with it: for Effect on cisplatin-induced increase of blood creatinine and urea nitrogen (in words): 30 min prior to cisplatin 5 mg/kg i.p.: compound B 200 mg/kg i.p., compound A 800 mg/kg p.o., amifostine 200 mg/kg i.p., day 5; for Creatinine / Urea nitrogen: whole blood day 5, individual rats. The protocol:
Healthy male SPF grade SD rats (body weight 250-300 g) were selected. Control group: PBS […] Cisplatin+compound B group: 5 mg/kg i.p.+compound B at 200 mg/kg i.p., with compound B being administered 30 min prior to cisplatin administration Cisplatin+amifostine group: 5 mg/kg i.p.+AMI at 200 mg/kg i.p., with AMI being administered 30 min prior to cisplatin administration Cisplatin+compound A group: 5 mg/kg i.p.+compound A at 800 mg/kg p.o., with compound A being administered 30 min prior to cisplatin administration (1) The SD rats used in the experiment were weighed, labeled, and evenly divided into 5 groups, with 3 SD rats in each group. (2) The compound B, compound A, and AMI groups were respectively administered at the planned concentrations. […] (3) The rats were weighed and recorded daily, and on day 5, blood was taken from the intraocular canthus of the SD rats and placed in an anticoagulant tube.

The test system of assay [2] is SD rat cerebral ischemia reperfusion injury model (MCAO). The assay can be described thus: Neurobehavioral evaluation (5-point Longa/Bederson score) in rat ischemic stroke model (MCAO). The settings on record: for Neurological function score After modeling: individual rats. In kind it is in vivo. Set-up: key to Neurological function score After modeling: Longa/Bederson 5-point scale (0-4); higher = more severe deficit. An excerpt:
Healthy male SPF grade SD rats (body weight 250-300 g) were selected. […] (2) A midline neck incision was made to expose the right common carotid artery, internal carotid artery and external carotid artery. A 6-0 silk thread was used to ligate the distal end of the external carotid artery at 4 mm from the bifurcation of the common carotid artery, another 6-0 silk thread was inserted at the external carotid artery, and a slipknot was tied near the bifurcation of the common carotid artery. (3) An arterial clamp was used to clamp the common carotid artery. […] (4) The thread embolism was removed 90 min after ischemia, the proximal end of the external artery was ligated with a 6-0 silk thread, the neck wound was sutured with a 3-0 silk thread, the wound was disinfected with povidone iodine, the rats were placed on a heating pad, and after being awake, they were placed in a constant temperature rearing box for rearing. […] The experimental animals were scored for signs of neurological function deficit before and after modeling. The scoring standard was given by reference to the 5-point system of Longa and Bederson. The scoring was performed 24 h after the animals were awake from anesthesia. The higher the score, the more severe the behavioral disorder of the animals. 0 point: No nerve damage symptoms […] Inability to fully extend the contralateral front paw […] Turning in a circle to the opposite side […] Falling over to the opposite side 4 points: Inability to walk spontaneously, and loss of consciousness In a manner same as in Example 1, experimental animals were selected, except that the experiment was divided into seven groups (i.e., groups […], and G, among which groups C, D, and E were given different dosages of administration from Example 1, group F was given edaravone, and group G was given amifostine).

For assay [3] the test system is unchanged. The assay can be described thus: TTC staining and cerebral infarction area in rat ischemic stroke model (MCAO). The class given is in vivo. The note with it: for Cerebral infarction area: individual rats. On the procedure:
Healthy male SPF grade SD rats (body weight 250-300 g) were selected. (1) The rats were anesthetized, the skin on the neck was prepared, and the body temperature was maintained at 37±0.5° C. (2) A midline neck incision was made to expose the right common carotid artery, internal carotid artery and external carotid artery. A 6-0 silk thread was used to ligate the distal end of the external carotid artery at 4 mm from the bifurcation of the common carotid artery, another 6-0 silk thread was inserted at the external carotid artery, and a slipknot was tied near the bifurcation of the common carotid artery. (3) An arterial clamp was used to clamp the common carotid artery. A small opening was cut on the external carotid artery at 3 mm from the bifurcation of the common carotid artery, and a 0.33 mm diameter nylon thread with a treated head end was inserted through the small opening, entered the internal carotid artery, and was inserted inward to the middle cerebral artery, wherein the insertion depth of the nylon thread was about 16±1 mm from the bifurcation of the common carotid artery. (4) The thread embolism was removed 90 min after ischemia, the proximal end of the external artery was ligated with a 6-0 silk thread, the neck wound was sutured with a 3-0 silk thread, the wound was disinfected with povidone iodine, the rats were placed on a heating pad, and after being awake, they were placed in a constant temperature rearing box for rearing. […] After the rats were anesthetized, the brain tissues were taken from the rats, placed in a refrigerator and frozen at -20° C. for 30 min. 1% TTC (W/V) was prepared with PBS and placed in a water bath at 37° C. until the TTC was dissolved, and the frozen brain tissue was sliced, placed in 10 ml of the TTC solution and incubated at 37° C. for 10 min. The brain slices were turned from time to time to make the tissue evenly stained. Normal brain tissue was bright red after staining, whereas the infarction region was pale white in color or light white in a black and white image. In addition, a software was used to measure and statistically analyze the infarction area. In a manner same as in Example 1, experimental animals were selected, except that the experiment was divided into seven groups (i.e., groups […], and G, among which groups C, D, and E were given different dosages of administration from Example 1, group F was given edaravone, and group G was given amifostine).

The mark [4] stands for this setting: compound A (trifluoroacetate) 800 mg/kg p.o. 30 min prior to cisplatin 5 mg/kg i.p.
Setting [5] is: Example 1 group E: compound A (trifluoroacetate) 1600 mg/kg p.o. 2.5 h before reperfusion, 1600 mg/kg.
Where [6] appears, read: Example 1 group E: compound A (trifluoroacetate) 1600 mg/kg p.o. 2.5 h before reperfusion, 24 h, 1600 mg/kg.
The mark [7] stands for this setting: Example 2 group D: compound A (trifluoroacetate) 400 mg/kg p.o. 2.5 h before reperfusion, 400 mg/kg.
[8] abbreviates: Example 2 group E: compound A (trifluoroacetate) 800 mg/kg p.o. 2.5 h before reperfusion, 800 mg/kg.
Where [9] appears, read: compound B (trifluoroacetate) 200 mg/kg i.p. 30 min prior to cisplatin 5 mg/kg i.p.
Setting [10] is: Example 1 group C: compound B (trifluoroacetate) 200 mg/kg i.p. 5 min before reperfusion, 200 mg/kg.
[11] abbreviates: Example 1 group C: compound B (trifluoroacetate) 200 mg/kg i.p. 5 min before reperfusion, 24 h, 200 mg/kg.
The mark [12] stands for this setting: Example 1 group D: compound B (trifluoroacetate) 200 mg/kg i.p. during ischemia and 200 mg/kg i.p. 5 min before reperfusion.
[13] abbreviates: Example 1 group D: compound B (trifluoroacetate) 200 mg/kg i.p. during ischemia and 200 mg/kg i.p. 5 min before reperfusion, 24 h.
Setting [14] is: Example 2 group C: compound B (trifluoroacetate) 100 mg/kg i.p. 5 min before reperfusion, 100 mg/kg.

“And” between values parts separate entries of the source, which are not always exact repeats. Identical values can stand only once. Where a SMILES comes first, the peptide text is derived from it. [ ]: non-standard residue; d: D form. NMeC = CN[C@@H](CS)C(=O)O

With `CNC(=O)[C@H](CS)NC(=O)[C@H](CS)NC` [Compound A, (R)-3-mercapto-N—((R)-3-mercapto-1-(methylamino)-1-oxoprop-2-yl)-2-(methylamino)propionamide] (H-[NMeC]-Cys-NHMe), in assay [1], the “Effect on cisplatin-induced increase of blood creatinine and urea nitrogen (in words)” value was “significantly reduce the increased blood creatinine and urea nitrogen levels”. The Creatinine in assay [1] (setting [4]) is 28.4 µmol/L and 18.1 µmol/L and 17.1 µmol/L. The Urea nitrogen in assay [1] (setting [4]) was 7.68 mmol/L and 7.16 mmol/L and 10.21 mmol/L. Further, the “% Behavioral improvement” value in assay [2] (setting [5]) is on record as 77.8%; in assay [2] (setting [7]), 46.99%; in assay [2] (setting [8]), 59.01%. The “Neurological function score After modeling” value in assay [2] (setting [6]) is 1 (2×) and 0; in assay [2] (setting [7]), 2 (3×) and 1 (3×); in assay [2] (setting [8]), 1 (5×) and 2. Further, the figures for the “% Improvement of cerebral infarction area” value in assay [3] (setting [5]), in assay [3] (setting [7]) and in assay [3] (setting [8]) were 83.9%, 72.97% and 87.32%, respectively. The Cerebral infarction area in assay [3] (setting [6]) was 40.19 mm^3 and 26.33 mm^3 and 9.18 mm^3; in assay [3] (setting [7]), 25.16 mm^3 and 11.23 mm^3 and 20.59 mm^3 and 15.48 mm^3 and 38.04 mm^3 and 82.75 mm^3; in assay [3] (setting [8]), 14.23 mm^3 and 0 mm^3 (2×) and 16.93 mm^3 and 12.31 mm^3 and 47.18 mm^3.
For `CNC(=O)[C@H](CS)NC(=O)[C@H](CS)NC(=O)[C@H](CS)NC` [Compound B, (R)-3-mercapto-N—((R)-3-mercapto-1-(((R)-3-mercapto-1-(methylamino)-1-oxoprop-2-yl)amino)-1-oxoprop-2-yl)-2-(methylamino)propionamide] (H-[NMeC]-Cys-Cys-NHMe), in assay [1], the “Effect on cisplatin-induced increase of blood creatinine and urea nitrogen (in words)” value is “significantly reduce the increased blood creatinine and urea nitrogen levels”. In addition, the Creatinine in assay [1] (setting [9]) was 18.1 µmol/L and 14.7 µmol/L and 30.4 µmol/L. Further, the Urea nitrogen in assay [1] (setting [9]) is 7.28 mmol/L and 5.71 mmol/L and 6.77 mmol/L. In addition, the “% Behavioral improvement” value in assay [2] (setting [10]) is listed as 66.7%; in assay [2] (setting [12]), 66.7%; in assay [2] (setting [14]) it was 29.32%. Also, the “Neurological function score After modeling” value in assay [2] (setting [11]) was 0 and 1 (3×) and 2; in assay [2] (setting [13]), 1; in assay [2] (setting [14]) it was 1 and 2 (4×) and 3. In addition, the entries for the “% Improvement of cerebral infarction area” value in assay [3] (setting [10]), in assay [3] (setting [12]) and in assay [3] (setting [14]) were 62.5%, 44.4% and 59.5%, respectively. Besides, the Cerebral infarction area was 67.44 mm^3 and 67.69 mm^3 and 32.84 mm^3 and 23.4 mm^3 and 105.9 mm^3 in assay [3] (setting [11]); 67.53 mm^3 and 105.5 mm^3 in assay [3] (setting [13]); 0 mm^3 and 32.568 mm^3 and 45.956 mm^3 and 21.529 mm^3 and 104.008 mm^3 and 85.208 mm^3 in assay [3] (setting [14]).
